Holding throughout (assay type): cell-based
One data set concerns the target T1, CXCR2 (Homo sapiens, UniProt P25025).
T1 construct: expressed in transfected cells; host or cells: HEK293 cells stably expressing Gα16 and CXCR2
T1 sequence (P25025 1-360): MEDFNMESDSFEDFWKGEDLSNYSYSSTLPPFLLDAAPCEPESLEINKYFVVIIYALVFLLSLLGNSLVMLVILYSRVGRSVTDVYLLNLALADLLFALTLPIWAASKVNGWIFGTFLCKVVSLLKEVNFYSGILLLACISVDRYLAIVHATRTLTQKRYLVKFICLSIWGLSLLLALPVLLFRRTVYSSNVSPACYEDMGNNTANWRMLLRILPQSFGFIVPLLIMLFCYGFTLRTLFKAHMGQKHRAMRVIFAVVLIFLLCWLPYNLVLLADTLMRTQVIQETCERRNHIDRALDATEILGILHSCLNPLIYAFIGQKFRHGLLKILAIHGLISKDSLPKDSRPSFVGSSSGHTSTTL
Kind of data set: CXCR2 antagonistic activity assay (IL-8-induced intracellular calcium change, Fluo-4 AM, HEK293 cells stably expressing Gα16 and CXCR2). The conditions noted are these: for CXCR2 antagonistic activity (in words): HEK293 cells expressing Gα16 and CXCR2. The protocol: Human embryonic kidney 293 (HEK293) cells stably expressing Gα16 and CXCR2 were seeded onto 96-well plates and incubated for 24 h. Cells were loaded with 2 µmol l^−1 Fluo-4 AM in Hank's balanced salt solution (HBSS, containing KCl 5.4 mmol l^−1, Na2HPO4 0.3 mmol l^−1, KH2PO4 0.4 mmol l^−1, NaHCO3 4.2 mmol l^−1, CaCl2 1.3 mmol l^−1, MgCl2 0.5 mmol l^−1, Mg2SO4 0.6 mmol l^−1, NaCl 137 mmol l^−1, BSA 5 g l^−1, glucose 5.6 mmol l^−1 and sulfinpyrazone 250 µmol l^−1, pH 7.4) at 37°C for 45 min. The excess dye was removed and 50 µl of HBSS containing test compounds was added. After incubation at room temperature for 10 min, 25 µl of HBSS containing IL-8 was dispensed into the well using a FlexStation II microplate reader (Molecular Devices, Sunnyvale, CA, USA), and intracellular calcium change was recorded with an excitation wavelength of 485 nm and an emission wavelength of 525 nm. The half maximal inhibitory concentrations (IC50) of compounds were determined with the […] PRISM software by constructing their dose–response curves.
On the technique in general: A change in cytosolic calcium serves as a functional read-out for many receptors and channels.

Data set [1] deals with NCI-H1299 cells. Nature of the data set: Anti-proliferation assay (MTT). Conditions: NCI-H1299, 0.1, 1, 10 and 100 µg ml^−1, 72 h. How it is done:
NCI-H1299 cells (provided by Tumor Pharmacology and Endocrine Laboratory, College of Pharmaceutical Sciences, Zhe Jiang University) were seeded in 96-well plates at a density of 4000 cells well^−1. After 24 h of adherence, cells were incubated with medium alone or medium containing test compounds for 72 h. Four different concentrations (100, 10, 1 and 0.1 µg ml^−1) of both antagonists were used. Cell proliferation was determined by the thiazolyl blue tetrazolium bromide (MTT) assay. Growth inhibition was calculated as % = [1 − (A/B)] × 100, where A and B were the absorbance of treated and untreated cells, respectively.
The highly metastatic NCI-H1299 lung cancer cell line was selected for the following in vitro biological evaluation.

In data set [2] the test system is NCI-H1299 cells. Kind of data set: Wound healing assay (cell migration). The conditions noted are these: Homo sapiens; NCI-H1299, 50 µg ml^−1, 48 h treatment; read-out: cell migration inhibitory rate. How it is done:
NCI-H1299 cells (5 × 10^5 cell well^−1) were seeded in a six-well tissue culture plate and grown to 90% confluence. After the medium was removed, a gap with constant width was created in the centre of the cell well by scratching the monolayer with a sterile yellow micropipette tip. […] The wound closure was monitored and photographed at 0, 12, 24, 36 and 48 h with the IMAGEPRO software. The cell migration inhibitory rate was calculated as % = [1 − (0 h wound area − 12, 24, 36 or 48 h wound area)/0 h wound area] × 100.
The wound area was calculated with the IMAGEPRO software.

Where [3] appears, read: HEK293 cells expressing Gα16 and CXCR2, IL-8 stimulated calcium change, read-out: CXCR2 IC50.

The structures appear in SMILES notation. Read-outs that look alike come from different tables or passages of the source.

The IC50 is the concentration that gives 50% inhibition. As to `CN(C)C(=O)c1cccc(Nc2nnc(-c3ccccc3)[nH]2)c1O` [Compound 1a, 2-hydroxy-N,N-dimethyl-3-((5-phenyl-4H-1,2,4-triazol-3-yl)amino)benzamide], the IC50 at CXCR2 (setting [3]) came out at 76 µM.
Turning to `CC(C)S(=O)(=O)c1c(Cl)ccc(Nc2nnc(-c3ccccc3)[nH]2)c1O` [Compound 1e, 3-chloro-2-(isopropylsulfonyl)-6-((5-phenyl-4H-1,2,4-triazol-3-yl)amino)phenol], the “cytotoxicity (growth inhibition, MTT)” value with NCI-H1299 cells [1] was “no cytotoxicity”. In the data set with NCI-H1299 cells [2], the inhibition at 50 µg/mL is 72%. The 50% inhibitory concentration (IC50) on CXCR2 was determined as 14.8 µM.
`CN(C)C(=O)c1cccc(Nc2nccc(Nc3ccccc3)n2)c1O` [Compound 2, 2-hydroxy-N,N-dimethyl-3-((4-(phenylamino)pyrimidin-2-yl)amino)benzamide]: at CXCR2, the “CXCR2 antagonistic activity (in words)” value is listed as “loss of CXCR2 antagonistic activity”. Besides, the IC50 at CXCR2 (setting [3]) was above 100 µM.
`N#Cc1ccc(Nc2nnc(-c3ccc(C(F)(F)F)cc3)[nH]2)c(O)c1` [Compound 1d, 3-hydroxy-4-((5-(4-(trifluoromethyl)phenyl)-4H-1,2,4-triazol-3-yl)amino)benzonitrile]: the IC50 at CXCR2 (setting [3]) was above 100 µM.
Still for that read-out and setting: the figure for `N#Cc1ccc(Nc2nnc(-c3ccccc3)[nH]2)c(O)c1` [Compound 1b, 3-hydroxy-4-((5-phenyl-4H-1,2,4-triazol-3-yl)amino)benzonitrile] is 18.5 µM.
On to `CN(C)C(=O)c1cccc(Nc2nn(Cc3ccccc3)c(=O)[nH]2)c1O` [Compound 3, 3-((1-benzyl-5-oxo-4,5-dihydro-1H-1,2,4-triazol-3-yl)amino)-2-hydroxy-N,N-dimethylbenzamide], for which the “CXCR2 antagonistic activity (in words)” value at CXCR2 is recorded as “loss of CXCR2 antagonistic activity”. Besides, the 50% inhibitory concentration (IC50) at CXCR2 (setting [3]) was above 100 µM.
Turning to `N#Cc1ccc(Nc2nnc(-c3ccccc3Br)[nH]2)c(O)c1` [Compound 1c, 4-((5-(2-bromophenyl)-4H-1,2,4-triazol-3-yl)amino)-3-hydroxybenzonitrile], the IC50 on CXCR2 (setting [3]) turned out to be 25.4 µM.
